Source: patent publication US20240166642A1, “INHIBITORS OF MYELOPEROXIDASE” (ASTRAZENECA AB, priority 2022, published 2024)
pIC50: −log10 of the molar value.

Key:
[1] = molecular target: MPO (purified from HL60 cells) (Homo sapiens (Human), UniProt P05164); assay: MPO activity (IC50), luminol chemiluminescence assay; format: biochemical; conditions: PBS pH7.4, luminol 100 μM, H2O2 50 μM, chemiluminescence recorded after 15 minutes
Method: (§1) The experiments were performed in phosphate-buffered saline (PBS), pH7.4. A 10 mM luminol (A4695, Sigma Aldrich, St Louis, MO, USA) stock was prepared in distilled water and further diluted in PBS to a final concentration of 100 μM. H2O2 was prepared as 1 mM stock in PBS, yielding a final concentration of 50 μM after addition into the assay. The compounds were serially diluted in DMSO in a separate plate as a 100× stock solution, and MPO (purified from HL60 cells) and TPO (produced in insect cells, RSR Ltd, Cardiff, UK), were diluted to yield a final concentration of approximately 14 and 150 ng/mL, generating 5600 and 9300 light counts per seconds (LCPS) upon incubation with luminol.
(§2) The experiment was run by pipetting 2 μL 100× stock solution of the compound and 200 μL diluted enzyme in PBS into wells in a 96-well Optiplate (6005290, Perkin Elmer/Thermo Fischer, Waltham, MS, USA), followed by addition of 10 μL H2O2 containing PBS. Chemiluminescence measurement (Perkin Elmer Wallac Microbeta Trilux 1450-029 (12-detector), Turkuu, Finland) was started directly and recorded after 2, 10 and 15 minutes.

[2] = molecular target: TPO (produced in insect cells, RSR Ltd) (Homo sapiens (Human), UniProt P07202); assay: TPO activity (IC50), luminol chemiluminescence assay; format: biochemical; conditions: PBS pH7.4, luminol 100 μM, H2O2 50 μM, chemiluminescence recorded after 15 minutes
Sequence of TPO (produced in insect cells, RSR Ltd) (P07202 19-933): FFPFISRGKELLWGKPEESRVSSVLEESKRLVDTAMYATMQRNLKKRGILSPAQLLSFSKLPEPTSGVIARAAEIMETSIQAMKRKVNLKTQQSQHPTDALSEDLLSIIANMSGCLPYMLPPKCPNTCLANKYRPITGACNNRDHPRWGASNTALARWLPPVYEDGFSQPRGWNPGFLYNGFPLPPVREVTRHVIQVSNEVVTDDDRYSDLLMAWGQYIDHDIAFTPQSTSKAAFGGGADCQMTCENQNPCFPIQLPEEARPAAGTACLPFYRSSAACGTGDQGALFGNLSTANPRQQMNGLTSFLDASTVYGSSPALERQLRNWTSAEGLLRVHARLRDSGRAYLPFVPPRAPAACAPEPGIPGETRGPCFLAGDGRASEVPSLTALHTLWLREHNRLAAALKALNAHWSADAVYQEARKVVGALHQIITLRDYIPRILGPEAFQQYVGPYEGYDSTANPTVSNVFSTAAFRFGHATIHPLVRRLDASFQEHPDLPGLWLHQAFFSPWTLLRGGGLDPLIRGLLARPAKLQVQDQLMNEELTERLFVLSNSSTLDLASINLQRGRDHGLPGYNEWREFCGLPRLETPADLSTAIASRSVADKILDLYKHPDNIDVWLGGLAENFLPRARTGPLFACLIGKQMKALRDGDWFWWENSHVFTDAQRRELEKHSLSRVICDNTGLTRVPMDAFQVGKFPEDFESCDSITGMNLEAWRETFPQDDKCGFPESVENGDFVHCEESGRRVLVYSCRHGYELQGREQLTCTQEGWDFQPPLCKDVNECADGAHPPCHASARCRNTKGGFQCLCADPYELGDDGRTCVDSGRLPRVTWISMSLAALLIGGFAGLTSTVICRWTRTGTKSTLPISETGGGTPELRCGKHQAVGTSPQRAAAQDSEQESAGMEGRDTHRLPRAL
Method: as §1, §2

Sequence of MPO (purified from HL60 cells) (P05164 49-745): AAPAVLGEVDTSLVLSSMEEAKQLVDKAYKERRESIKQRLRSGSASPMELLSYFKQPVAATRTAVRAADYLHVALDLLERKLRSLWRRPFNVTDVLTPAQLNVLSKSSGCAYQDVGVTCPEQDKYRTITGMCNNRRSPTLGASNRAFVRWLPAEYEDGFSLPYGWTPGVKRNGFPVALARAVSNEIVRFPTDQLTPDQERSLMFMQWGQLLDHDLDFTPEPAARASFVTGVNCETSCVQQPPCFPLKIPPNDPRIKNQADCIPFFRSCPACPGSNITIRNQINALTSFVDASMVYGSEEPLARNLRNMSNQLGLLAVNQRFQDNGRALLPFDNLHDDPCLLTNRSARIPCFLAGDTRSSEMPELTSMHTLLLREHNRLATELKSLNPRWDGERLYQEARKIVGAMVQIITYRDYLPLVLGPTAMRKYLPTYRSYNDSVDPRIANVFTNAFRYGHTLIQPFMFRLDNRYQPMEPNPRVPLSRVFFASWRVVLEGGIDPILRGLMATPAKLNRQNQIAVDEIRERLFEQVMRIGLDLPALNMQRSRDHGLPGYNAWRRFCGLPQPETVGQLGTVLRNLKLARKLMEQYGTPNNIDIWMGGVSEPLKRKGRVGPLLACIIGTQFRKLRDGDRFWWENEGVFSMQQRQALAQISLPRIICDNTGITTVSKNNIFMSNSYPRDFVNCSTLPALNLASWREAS

pIC50 [1]	pIC50 [2]	Compound
7.92	6.25	NC1(c2ccc(Cn3c(=S)[nH]c(=O)c4[nH]ccc43)cc2)CCC1 [Example 24, 1-(4-(1-Aminocyclobutyl)benzyl)-2-thioxo-1,2,3,5-tetrahydro-4H-pyrrolo[3,2-d]pyrimidin-4-one]
6.99	6.24	O=c1[nH]c(=S)n(Cc2ccc3c(c2)CNC3)c2cc[nH]c12 [Example 25, 1-(Isoindolin-5-ylmethyl)-2-thioxo-1,2,3,5-tetrahydro-4H-pyrrolo[3,2-d]pyrimidin-4-one]
7.89	6.08	O=c1[nH]c(=S)n(Cc2cccc3c2CNC3)c2cc[nH]c12 [Example 26, 1-(Isoindolin-4-ylmethyl)-2-thioxo-1,2,3,5-tetrahydro-4H-pyrrolo[3,2-d]pyrimidin-4-one]
8.30	6.17	NC1(c2cccc(Cn3c(=S)[nH]c(=O)c4[nH]ccc43)c2)CCC1 [Example 27, 1-(3-(1-Aminocyclobutyl)benzyl)-2-thioxo-1,2,3,5-tetrahydro-4H-pyrrolo[3,2-d]pyrimidin-4-one]
8.52	6.17	O=c1[nH]c(=S)n(Cc2ccccc2C2CCCNC2)c2cc[nH]c12 (stereo not drawn) [Example 28, 1-(2-(Piperidin-3-yl)benzyl)-2-thioxo-1,2,3,5-tetrahydro-4H-pyrrolo[3,2-d]pyrimidin-4-one]
7.54	6.23	O=c1[nH]c(=S)n(Cc2ccccc2C2CCNCC2)c2cc[nH]c12 [Example 30, 1-(2-(Piperidin-4-yl)benzyl)-2-thioxo-1,2,3,5-tetrahydro-4H-pyrrolo[3,2-d]pyrimidin-4-one]
